Assay results as given in ChEMBL document CHEMBL5625226, “Synthesis, computational and experimental pharmacological studies for (thio)ether-triazine 5-HT6R ligands with noticeable action on AChE/BChE and chalcogen-dependent intrinsic activity in search for new class of drugs against Alzheimer's disease” (Eur J Med Chem, 2023).

Legend:
[1] = cells; details: Rattus norvegicus, Whole blood cell, 0.05 h
Description: Antiplatelet activity against rat whole blood assessed as inhibition of collagen induced platelet aggregation measured after 3 mins

[2] = molecular target: T1, 5-hydroxytryptamine receptor 6 (Homo sapiens, UniProt P50406); experiment: biochemical
[3] = molecular target: 5-hydroxytryptamine receptor 7 (Homo sapiens, UniProt P34969); experiment: biochemical
[4] = molecular target: D(2) dopamine receptor (Homo sapiens, UniProt P14416); experiment: biochemical
[5] = tested on: HepG2; experiment: cells; details: Homo sapiens, HepG2, 1 h
Description: Neuroprotective activity against H202 induced oxidative stress in human HepG2 cells measured after 1 hr by DCFH-DA staining based analysis

[6] = molecular target: Cholinesterase (Equus caballus, UniProt P81908)
Description: Inhibition of equine serum BChE using butyrylthiocholine iodide as substrate preincubated for 20 mins followed by substrate addition and measured after 5 mins by Ellman's method

[7] = tested on: SH-SY5Y; experiment: cells; details: Homo sapiens, 1 h
Description: Neuroprotective activity against H202 induced oxidative stress in human SH-SY5Y cells measured after 1 hr by DCFH-DA staining based analysis

[8] = molecular target: 5-hydroxytryptamine receptor 2A (Homo sapiens, UniProt P28223); experiment: biochemical
[9] = molecular target: Acetylcholinesterase (Electrophorus electricus, UniProt O42275)
Description: Inhibition of electric eel AChE using acetylthiocholine iodide as substrate preincubated with compounds for 20 mins followed by substrate addition and measured after 5 mins by Ellman's method

[10] = molecular target: T1, 5-hydroxytryptamine receptor 6; details: 1321N1, filed as antagonist, dose 10.0 mM, time 30.0 min

5-hydroxytryptamine receptor 7, sequence (P34969 whole entry): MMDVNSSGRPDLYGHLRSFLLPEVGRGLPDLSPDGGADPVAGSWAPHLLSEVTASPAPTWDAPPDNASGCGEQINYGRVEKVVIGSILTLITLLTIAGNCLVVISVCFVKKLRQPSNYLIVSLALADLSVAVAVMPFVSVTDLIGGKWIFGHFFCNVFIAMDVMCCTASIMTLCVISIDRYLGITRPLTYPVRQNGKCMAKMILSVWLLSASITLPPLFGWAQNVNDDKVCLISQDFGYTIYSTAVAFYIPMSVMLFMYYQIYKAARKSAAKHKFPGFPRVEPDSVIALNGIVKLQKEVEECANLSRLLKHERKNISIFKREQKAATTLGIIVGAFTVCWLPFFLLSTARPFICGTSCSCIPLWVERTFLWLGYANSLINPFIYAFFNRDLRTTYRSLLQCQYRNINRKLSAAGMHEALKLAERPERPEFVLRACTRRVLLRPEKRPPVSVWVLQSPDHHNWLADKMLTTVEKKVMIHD
5-hydroxytryptamine receptor 2A, sequence (P28223 whole entry): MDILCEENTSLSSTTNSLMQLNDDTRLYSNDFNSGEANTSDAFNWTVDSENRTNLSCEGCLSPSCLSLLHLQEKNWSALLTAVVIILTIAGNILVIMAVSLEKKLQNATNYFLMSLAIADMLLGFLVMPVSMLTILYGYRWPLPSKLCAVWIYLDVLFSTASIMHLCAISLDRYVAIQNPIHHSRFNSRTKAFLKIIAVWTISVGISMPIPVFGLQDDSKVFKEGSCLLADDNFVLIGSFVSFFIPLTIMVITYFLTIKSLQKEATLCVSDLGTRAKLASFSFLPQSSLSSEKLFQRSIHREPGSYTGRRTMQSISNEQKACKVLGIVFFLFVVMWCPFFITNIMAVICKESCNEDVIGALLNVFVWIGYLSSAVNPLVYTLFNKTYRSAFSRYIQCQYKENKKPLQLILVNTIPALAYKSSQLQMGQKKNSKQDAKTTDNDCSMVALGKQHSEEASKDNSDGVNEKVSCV
Cholinesterase, sequence (P81908 whole entry): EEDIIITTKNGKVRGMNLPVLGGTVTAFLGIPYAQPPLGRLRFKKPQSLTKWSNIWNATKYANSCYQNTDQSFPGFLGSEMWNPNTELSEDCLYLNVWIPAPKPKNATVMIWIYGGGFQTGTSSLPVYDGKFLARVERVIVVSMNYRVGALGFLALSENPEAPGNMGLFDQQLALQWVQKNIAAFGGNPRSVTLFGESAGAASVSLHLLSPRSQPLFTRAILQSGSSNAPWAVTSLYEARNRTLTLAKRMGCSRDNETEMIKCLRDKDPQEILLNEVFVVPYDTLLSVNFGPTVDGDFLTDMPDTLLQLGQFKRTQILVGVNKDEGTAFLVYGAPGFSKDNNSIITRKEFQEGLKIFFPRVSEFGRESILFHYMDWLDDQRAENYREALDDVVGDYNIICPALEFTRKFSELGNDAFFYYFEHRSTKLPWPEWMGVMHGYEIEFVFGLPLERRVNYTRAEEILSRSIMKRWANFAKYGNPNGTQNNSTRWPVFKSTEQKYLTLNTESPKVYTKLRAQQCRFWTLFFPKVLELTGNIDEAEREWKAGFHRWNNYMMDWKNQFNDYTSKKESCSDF
T1 sequence (P50406 whole entry): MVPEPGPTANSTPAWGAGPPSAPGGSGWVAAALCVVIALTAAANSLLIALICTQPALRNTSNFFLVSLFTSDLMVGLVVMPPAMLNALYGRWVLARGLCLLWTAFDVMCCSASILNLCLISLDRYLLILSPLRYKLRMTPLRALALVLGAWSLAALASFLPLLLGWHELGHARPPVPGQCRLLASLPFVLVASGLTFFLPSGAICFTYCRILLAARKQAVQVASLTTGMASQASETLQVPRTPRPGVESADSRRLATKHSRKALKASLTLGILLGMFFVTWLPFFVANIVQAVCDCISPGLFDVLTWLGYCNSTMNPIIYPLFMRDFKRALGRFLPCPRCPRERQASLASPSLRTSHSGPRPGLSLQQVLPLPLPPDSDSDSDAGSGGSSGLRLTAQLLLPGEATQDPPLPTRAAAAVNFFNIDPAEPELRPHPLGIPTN
D(2) dopamine receptor, sequence (P14416 whole entry): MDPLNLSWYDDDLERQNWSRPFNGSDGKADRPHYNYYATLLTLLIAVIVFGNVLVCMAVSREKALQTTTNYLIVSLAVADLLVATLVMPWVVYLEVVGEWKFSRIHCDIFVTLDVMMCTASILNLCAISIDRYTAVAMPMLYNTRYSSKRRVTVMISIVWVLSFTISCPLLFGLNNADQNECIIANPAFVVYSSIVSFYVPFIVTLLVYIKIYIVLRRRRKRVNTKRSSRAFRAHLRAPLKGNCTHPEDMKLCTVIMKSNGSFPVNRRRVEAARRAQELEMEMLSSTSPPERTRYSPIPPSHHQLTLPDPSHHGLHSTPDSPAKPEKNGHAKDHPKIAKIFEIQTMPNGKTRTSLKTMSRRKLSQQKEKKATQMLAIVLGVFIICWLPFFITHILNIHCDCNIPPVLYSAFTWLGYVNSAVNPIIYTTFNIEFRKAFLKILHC
Acetylcholinesterase, sequence (O42275 whole entry): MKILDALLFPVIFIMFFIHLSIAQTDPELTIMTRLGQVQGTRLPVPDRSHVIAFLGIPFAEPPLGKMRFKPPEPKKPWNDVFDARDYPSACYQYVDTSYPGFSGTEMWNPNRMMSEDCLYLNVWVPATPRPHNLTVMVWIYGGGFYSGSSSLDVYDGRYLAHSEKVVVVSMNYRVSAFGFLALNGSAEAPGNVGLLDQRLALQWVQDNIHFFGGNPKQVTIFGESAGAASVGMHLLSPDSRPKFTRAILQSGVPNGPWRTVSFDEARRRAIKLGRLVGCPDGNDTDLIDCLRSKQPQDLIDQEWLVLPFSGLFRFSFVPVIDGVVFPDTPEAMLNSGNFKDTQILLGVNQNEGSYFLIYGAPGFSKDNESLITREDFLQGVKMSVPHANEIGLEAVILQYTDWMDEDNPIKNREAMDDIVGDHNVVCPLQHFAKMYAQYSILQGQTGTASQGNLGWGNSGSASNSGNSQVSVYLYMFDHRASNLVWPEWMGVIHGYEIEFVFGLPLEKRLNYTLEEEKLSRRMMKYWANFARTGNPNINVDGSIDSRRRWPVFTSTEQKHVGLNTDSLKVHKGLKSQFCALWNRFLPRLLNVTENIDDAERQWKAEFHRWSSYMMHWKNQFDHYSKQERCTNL

CC(=O)Oc1ccccc1C(=O)O [ASPIRIN]
IC50 [1]: 17.4 µM

CCCC(Sc1cc(Cl)ccc1Cl)c1nc(N)nc(N2CCN(C)CC2)n1 (racemic)
Ki [2]: 0.009 µM | Ki [3]: 6.21 µM | Ki [4]: 0.971 µM

CCCCC(Oc1cccc(Cl)c1Cl)c1nc(N)nc(N2CCN(C)CC2)n1 (stereo not drawn)
IC50 [5]: 13.2 µM | IC50 [6]: 0.5 µM | IC50 [7]: 29.9 µM

CN1CCN(c2nc(N)nc(C(C)(C)Sc3ccccc3Cl)n2)CC1
Ki [8]: 0.892 µM | Ki [2]: 0.476 µM | Ki [3]: 5.92 µM | Ki [4]: 0.727 µM

CCCC(Sc1cc(Cl)cc(Cl)c1)c1nc(N)nc(N2CCN(C)CC2)n1 (racemic)
Ki [8]: 0.5 µM | Ki [2]: 0.074 µM | Ki [3]: 8.63 µM | Ki [4]: 0.663 µM

CCCCC(Sc1cccc(Cl)c1Cl)c1nc(N)nc(N2CCN(C)CC2)n1 (racemic)
Ki [8]: 0.179 µM | Ki [2]: 0.169 µM | Ki [3]: 1.8 µM | IC50 [6]: 9.95 µM

CC(Oc1ccc(Cl)c(Cl)c1)c1nc(N)nc(N2CCN(C)CC2)n1 (stereo not drawn)
IC50 [9]: 9.52 µM

CCC(Sc1cc(Cl)ccc1Cl)c1nc(N)nc(N2CCNCC2)n1 (racemic)
Ki [8]: 0.188 µM | Ki [3]: 5.67 µM

CCC(Oc1cc(Cl)ccc1Cl)c1nc(N)nc(N2CCNCC2)n1 (racemic)
Ki [8]: 0.062 µM | Ki [3]: 3.72 µM

CC(Sc1cc(Cl)cc(Cl)c1)c1nc(N)nc(N2CCN(C)CC2)n1 (racemic)
Ki [8]: 0.178 µM | Ki [2]: 0.103 µM | Ki [3]: 6.04 µM | Ki [4]: 0.362 µM | IC50 [9]: 5.37 µM

CCC(Oc1ccccc1)c1nc(N)nc(N2CCNCC2)n1 (racemic)
Ki [8]: 4.82 µM | Ki [2]: 0.414 µM | IC50 [5]: 0.02 µM | Ki [3]: 8.15 µM | IC50 [7]: 42.1 µM

CC(Oc1cc(Cl)cc(Cl)c1)c1nc(N)nc(N2CCN(C)CC2)n1 (stereo not drawn)
IC50 [9]: 3.95 µM

CC(Sc1cc(Cl)ccc1Cl)c1nc(N)nc(N2CCN(C)CC2)n1 (racemic)
Ki [2]: 0.169 µM | Ki [3]: 61 µM | Ki [4]: 4.78 µM | IC50 [9]: 9.19 µM

CN1CCN(c2nc(N)nc(C(C)(C)Oc3ccccc3Cl)n2)CC1
Ki [8]: 0.573 µM | Ki [2]: 0.079 µM | Ki [3]: 5.63 µM | Ki [4]: 0.797 µM

COc1ccc(NS(=O)(=O)c2ccc(I)cc2)cc1N1CCN(C)CC1
Emax [10]: 100%

CCC(Sc1cccc(Cl)c1Cl)c1nc(N)nc(N2CCN(C)CC2)n1 (racemic)
Ki [8]: 2.15 µM | Ki [3]: 2.56 µM | Ki [4]: 0.879 µM

CCC(Sc1cccc(Cl)c1Cl)c1nc(N)nc(N2CCNCC2)n1 (racemic)
Ki [8]: 0.115 µM | Ki [3]: 3.32 µM

CCC(Sc1cc(Cl)ccc1Cl)c1nc(N)nc(N2CCN(C)CC2)n1 (racemic)
Ki [8]: 0.551 µM | Ki [3]: 5.14 µM | Ki [4]: 1 µM | IC50 [6]: 12.1 µM

CCC(Oc1cc(Cl)ccc1Cl)c1nc(N)nc(N2CCN(C)CC2)n1 (stereo not drawn)
IC50 [5]: 7.4 µM | IC50 [9]: 11.2 µM | IC50 [7]: 81.3 µM

CCC(Sc1cc(Cl)cc(Cl)c1)c1nc(N)nc(N2CCN(C)CC2)n1 (racemic)
Ki [8]: 0.178 µM | Ki [2]: 0.103 µM | Ki [3]: 6.04 µM | Ki [4]: 0.362 µM | IC50 [6]: 9.8 µM

CCC(Sc1ccc(Cl)c(Cl)c1)c1nc(N)nc(N2CCN(C)CC2)n1 (racemic)
Ki [8]: 0.547 µM | Ki [2]: 0.181 µM | Ki [3]: 5.16 µM | Ki [4]: 0.897 µM | IC50 [6]: 15 µM | IC50 [9]: 4.57 µM

CCC(Sc1ccccc1)c1nc(N)nc(N2CCN(C)CC2)n1 (racemic)
Ki [8]: 0.427 µM | Ki [2]: 0.127 µM | Ki [3]: 2.47 µM | Ki [4]: 7.27 µM

CCC(Oc1cccc(Cl)c1Cl)c1nc(N)nc(N2CCNCC2)n1 (racemic)
Ki [8]: 0.118 µM | Ki [2]: 0.179 µM | Ki [3]: 4.51 µM | IC50 [6]: 10 µM

CC(Sc1ccc(Cl)c(Cl)c1)c1nc(N)nc(N2CCN(C)CC2)n1 (racemic)
Ki [2]: 0.152 µM | Ki [3]: 2.87 µM | Ki [4]: 0.53 µM
